In the assay the target is T1, HCV NS3/NS4a serine protease (Hepatitis C virus genotype 1b, UniProt P26663).
T1 construct: amino terminus of the NS3 protease domain (amino acids 3-181) with a tetrapeptide linker; made in house; host or cells: E. coli
T1 sequence (P26663 1013-1207, looked up, natural form): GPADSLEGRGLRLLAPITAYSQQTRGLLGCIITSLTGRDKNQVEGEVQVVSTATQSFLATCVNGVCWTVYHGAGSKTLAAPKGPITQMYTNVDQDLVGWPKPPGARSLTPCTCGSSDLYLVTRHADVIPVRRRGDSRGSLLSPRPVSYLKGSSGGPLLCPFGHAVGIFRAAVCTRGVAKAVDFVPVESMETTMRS
The assay can be described thus: Spectrophotometric assay for HCV protease inhibitory activity (chromogenic ester substrates). The class given is biochemical, hepatitis C virus (strain 1b). To be noted: Ki, Table 3; rating; single chain NS4A21-32-GSGS-NS3 3-181 protease, 30° C., pH 6.5. The method, boiled down: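 Single-chain NS4A(21-32)-GSGS-NS3(3-181) protease (genotype 1b) from E. coli was used at 1.3 nM in 25 mM MOPS pH 6.5 with 300 mM NaCl, 30 °C and 4% DMSO. Chromogenic ester substrate cleavage was followed as PAP release at 370 nm over 60 min. Ki was derived from vo/vi versus [I] plots assuming competitive inhibition.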
For `COc1ccc(CCNC(=O)[C@H](CC(F)F)NC(=O)[C@@H]2[C@@H]3[C@H](CN2C(=O)[C@@H](NC(=O)N[C@H](CN(C)S(C)(=O)=O)C(C)(C)C)C(C)(C)C)C3(C)C)cc1O` [Example 295], the Ki is under 100 nM.

Take `CC(Cc1ccc(Cl)cc1)NC(=O)[C@H](CC(F)F)NC(=O)[C@@H]1[C@@H]2[C@H](CN1C(=O)[C@@H](NC(=O)N[C@H](CN(C)S(C)(=O)=O)C(C)(C)C)C(C)(C)C)C2(C)C` (stereo partly drawn) [Example 296]: the Ki was 100 to 500 nM.

`COc1cc(CCNC(=O)[C@H](CC(F)F)NC(=O)[C@@H]2[C@@H]3[C@H](CN2C(=O)[C@@H](NC(=O)N[C@H](CN(C)S(C)(=O)=O)C(C)(C)C)C(C)(C)C)C3(C)C)cc(OC)c1O` [Example 297]: the Ki fell in the range of 100 to 500 nM.

Take `CN(C[C@@H](NC(=O)N[C@H](C(=O)N1C[C@H]2[C@@H]([C@H]1C(=O)N[C@@H](CC(F)F)C(=O)NCCc1ccc(O)c(O)c1)C2(C)C)C(C)(C)C)C(C)(C)C)S(C)(=O)=O` [Example 298]: the Ki was under 100 nM.

In the case of `CCCOc1ccc(CCNC(=O)[C@H](CC(F)F)NC(=O)[C@@H]2[C@@H]3[C@H](CN2C(=O)[C@@H](NC(=O)N[C@H](CN(C)S(C)(=O)=O)C(C)(C)C)C(C)(C)C)C3(C)C)cc1Cl` [Example 299], the Ki is under 100 nM.

Turning to `COc1ccc(Br)cc1CCNC(=O)[C@H](CC(F)F)NC(=O)[C@@H]1[C@@H]2[C@H](CN1C(=O)[C@@H](NC(=O)N[C@H](CN(C)S(C)(=O)=O)C(C)(C)C)C(C)(C)C)C2(C)C` [Example 300], the Ki was under 100 nM.

For `CN(C[C@@H](NC(=O)N[C@H](C(=O)N1C[C@H]2[C@@H]([C@H]1C(=O)N[C@@H](CC(F)F)C(=O)N1Cc3ccccc3C1)C2(C)C)C(C)(C)C)C(C)(C)C)S(C)(=O)=O` [Example 301], the Ki was over 500 nM.

For the compound `CN(C[C@@H](NC(=O)N[C@H](C(=O)N1C[C@H]2[C@@H]([C@H]1C(=O)N[C@@H](CC(F)F)C(=O)N1CCc3ccccc3C1)C2(C)C)C(C)(C)C)C(C)(C)C)S(C)(=O)=O` [Example 302], the Ki is over 500 nM.

As to `CN(CCc1ccccc1)C(=O)[C@H](CC(F)F)NC(=O)[C@@H]1[C@@H]2[C@H](CN1C(=O)[C@@H](NC(=O)N[C@H](CN(C)S(C)(=O)=O)C(C)(C)C)C(C)(C)C)C2(C)C` [Example 303], the Ki was over 500 nM.

In the case of `CCN(Cc1ccncc1)C(=O)[C@H](CC(F)F)NC(=O)[C@@H]1[C@@H]2[C@H](CN1C(=O)[C@@H](NC(=O)N[C@H](CN(C)S(C)(=O)=O)C(C)(C)C)C(C)(C)C)C2(C)C` [Example 304], the Ki was over 500 nM.

`CN(CCc1ccccn1)C(=O)[C@H](CC(F)F)NC(=O)[C@@H]1[C@@H]2[C@H](CN1C(=O)[C@@H](NC(=O)N[C@H](CN(C)S(C)(=O)=O)C(C)(C)C)C(C)(C)C)C2(C)C` [Example 305]: the Ki was over 500 nM.

`CN(C[C@@H](NC(=O)N[C@H](C(=O)N1C[C@H]2[C@@H]([C@H]1C(=O)N[C@@H](CC(F)F)C(=O)NCCc1c(F)cccc1F)C2(C)C)C(C)(C)C)C(C)(C)C)S(C)(=O)=O` [Example 306]: the Ki was under 100 nM.

For the compound `CN(C[C@@H](NC(=O)N[C@H](C(=O)N1C[C@H]2[C@@H]([C@H]1C(=O)N[C@@H](CC(F)F)C(=O)N[C@H]1C[C@H]1c1ccccc1)C2(C)C)C(C)(C)C)C(C)(C)C)S(C)(=O)=O` [Example 307], the Ki was under 100 nM.

As for `CN(C[C@@H](NC(=O)N[C@H](C(=O)N1C[C@H]2[C@@H]([C@H]1C(=O)N[C@@H](CC(F)F)C(=O)N[C@@H]1C[C@@H]1c1ccccc1)C2(C)C)C(C)(C)C)C(C)(C)C)S(C)(=O)=O` [Example 308], the inhibition constant (Ki) is under 100 nM.

As for `CC1(C)CC(=O)N(C[C@@H](NC(=O)N[C@H](C(=O)N2C[C@H]3[C@@H]([C@H]2C(=O)N[C@@H](CC(F)F)C(=O)NCCc2c(F)cccc2F)C3(C)C)C(C)(C)C)C(C)(C)C)C(=O)C1` [Example 309], the Ki was under 100 nM.

As a reminder, the Ki is the dissociation constant of the complex between target and ligand, obtained from inhibition or displacement.

These data come from patent US7449447B2, “Peptidomimetic NS3-serine protease inhibitors of hepatitis C virus” (priority 2003, dated 2008).
